Measured values from patent US4637999A, “Substituted cephalosporins as anti-inflammatory and antidegenerative agents” (Merck & Co., Inc., priority 1983, dated 1987).
Where two headings read alike, the source gives them in different places.

Biological target: T1, Human Polymorphonuclear Leukocyte Elastase (Homo sapiens, UniProt P08246)
T1 sequence (P08246 30-267): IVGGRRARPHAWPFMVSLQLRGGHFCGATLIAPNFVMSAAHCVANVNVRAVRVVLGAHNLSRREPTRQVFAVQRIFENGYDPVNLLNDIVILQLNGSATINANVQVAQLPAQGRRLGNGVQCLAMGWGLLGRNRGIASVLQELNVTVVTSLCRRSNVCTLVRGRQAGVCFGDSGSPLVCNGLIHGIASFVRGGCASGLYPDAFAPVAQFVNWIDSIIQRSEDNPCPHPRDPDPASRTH
Assay: biochemical

[1] = 50% inhibition of enzyme activity 2 minutes after zero time, crude PMN extract, 0.2 mM Boc-AAPAN, pH 7.5, 410 mμ, read-out: ED50 (the source's name) (converted)

Row | SMILES | IC50 [1] | IC50
1 | COC(=O)CCCOC(=O)C1=C(COC(C)=O)CSC2C(OC)C(=O)N12 (centres unmarked) [R1=OCH3, B=O(CH2)3 COOCH3] | 1.29 µM | 
2 | COC(=O)c1ccc(COC(=O)C2=C(COC(C)=O)CSC3C(OC)C(=O)N23)cc1 (centres unmarked) [R1=OCH3, B=OCH2 .phi.(p-COOCH3)] | 0.689 µM | 
3 | COC1C(=O)N2C(C(=O)OCC=C(C)C)=C(COC(C)=O)CSC12 (centres unmarked) [R1=OCH3, B=OCH2 CHC(CH3)2] | 2.81 µM | 
4 | CCOC(=O)COC(=O)C1=C(COC(C)=O)CSC2C(OC)C(=O)N12 (stereo not drawn) [R1=OCH3, B=OCH2 COOC2 H5, Ethoxycarbonylmethyl 3-acetyloxymethyl-7α-methoxy-8-oxo-5-thia-1-azabicyclo[4.2.0]oct-2-ene-2-carboxylate] | 1.07 µM | 
5 | COC(=O)C1=C(COC(C)=O)CSC2C(OC)C(=O)N12 (centres unmarked) [R1=OCH3, B=OCH3] | 8.3 µM | 
6 | CO[C@H]1C(=O)N2C(C(=O)OC(C)(C)C)=C(COC(C)=O)CS[C@H]12 [R1=OCH3, B=OtBu, t-Butyl 3-acetyloxymethyl-7α-methoxy-8-oxo-5-thia-1-azabicyclo(4.2.0)oct-2-ene-2-carboxylate] | 10.2 µM | 
7 | CC(=O)OCC1=C(C(=O)OCc2ccccc2)N2C(=O)C(OC=O)C2SC1 (centres unmarked) [R1=OCHO, B=OCH2 .phi.] | 5.11 µM | 
8 | COC(=O)C1=C(COC(C)=O)CSC2C(OC=O)C(=O)N12 (centres unmarked) [R1=OCHO, B=OCH3] | 9.51 µM | 
9 | COC(=O)C1=C(COC(C)=O)CSC2C(OC(=O)c3ccccc3)C(=O)N12 (centres unmarked) [R1=OCO.phi., B=OCH3] | 12.8 µM | 
10 | COC(=O)C1=C(COC(C)=O)CSC2C(OC(=O)Cc3ccccc3)C(=O)N12 (centres unmarked) [R1=OCOCH2 .phi., B=OCH3] |  | 9.87 µM
11 | CC(=O)OCC1=C(C(=O)OC(C)(C)C)N2C(=O)C(OC(=O)Cc3ccccc3)C2SC1 (centres unmarked) [R1=OCOCH2 .phi., B=OtBu] |  | 6.7 µM
